This is an account of results in US20240109865A1, “INDAZOLE COMPOUNDS AS KINASE INHIBITORS” (TYRA BIOSCIENCES, INC., priority 2020, published 2024).

Molecules are shown by their SMILES.

Common to all, as to test: Kinase assay, binding constants (Kd), kinase-tagged T7 phage, qPCR
One test concerns the target FGFR4 (Homo sapiens (Human), UniProt P22455). The procedure, abridged: (§1)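 Using T7 phage lysates from BL21-derived E. coli, compounds at 0.9% final DMSO competed for kinase binding to ligand-bearing magnetic beads. After elution, qPCR measured remaining kinase, and Kds were fitted by non-linear least squares with the Hill slope fixed at −1.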
Another test deals with FGFR2 (Homo sapiens (Human), UniProt P21802). In short, it runs like this:
as §1

The target in the next test is FGFR3 (V555M) (Homo sapiens (Human), UniProt P22607, V555M). The note with it: V555M mutant. The procedure, abridged: as §1
In a further test the target is FGFR3 (Homo sapiens (Human), UniProt P22607). The procedure, abridged: as §1
The target in another test is FGFR1 (Homo sapiens (Human), UniProt P11362). The procedure, abridged:
as §1

FGFR3 (V555M), sequence (P22607 23-806 V555M): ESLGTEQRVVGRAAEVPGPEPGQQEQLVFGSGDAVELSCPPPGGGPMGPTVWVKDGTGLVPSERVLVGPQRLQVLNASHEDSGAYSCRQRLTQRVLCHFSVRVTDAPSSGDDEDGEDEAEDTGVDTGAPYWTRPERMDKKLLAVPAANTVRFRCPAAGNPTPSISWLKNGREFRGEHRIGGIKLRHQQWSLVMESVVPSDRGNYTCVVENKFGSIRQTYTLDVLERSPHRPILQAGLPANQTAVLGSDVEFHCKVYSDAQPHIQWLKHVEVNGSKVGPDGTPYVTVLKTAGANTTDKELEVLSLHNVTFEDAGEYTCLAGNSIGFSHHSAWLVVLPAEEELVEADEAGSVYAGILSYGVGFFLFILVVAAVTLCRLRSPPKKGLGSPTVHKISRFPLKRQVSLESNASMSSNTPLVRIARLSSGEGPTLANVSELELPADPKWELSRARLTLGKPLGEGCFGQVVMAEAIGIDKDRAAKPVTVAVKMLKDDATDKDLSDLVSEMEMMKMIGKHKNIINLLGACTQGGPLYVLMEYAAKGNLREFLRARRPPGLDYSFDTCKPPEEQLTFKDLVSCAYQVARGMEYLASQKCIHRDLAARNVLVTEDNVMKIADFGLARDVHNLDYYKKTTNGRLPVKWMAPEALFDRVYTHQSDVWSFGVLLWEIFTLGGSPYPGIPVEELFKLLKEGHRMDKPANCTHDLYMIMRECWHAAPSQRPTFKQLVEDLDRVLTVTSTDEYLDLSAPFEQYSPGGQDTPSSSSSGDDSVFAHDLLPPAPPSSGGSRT
FGFR2, sequence (P21802 22-821): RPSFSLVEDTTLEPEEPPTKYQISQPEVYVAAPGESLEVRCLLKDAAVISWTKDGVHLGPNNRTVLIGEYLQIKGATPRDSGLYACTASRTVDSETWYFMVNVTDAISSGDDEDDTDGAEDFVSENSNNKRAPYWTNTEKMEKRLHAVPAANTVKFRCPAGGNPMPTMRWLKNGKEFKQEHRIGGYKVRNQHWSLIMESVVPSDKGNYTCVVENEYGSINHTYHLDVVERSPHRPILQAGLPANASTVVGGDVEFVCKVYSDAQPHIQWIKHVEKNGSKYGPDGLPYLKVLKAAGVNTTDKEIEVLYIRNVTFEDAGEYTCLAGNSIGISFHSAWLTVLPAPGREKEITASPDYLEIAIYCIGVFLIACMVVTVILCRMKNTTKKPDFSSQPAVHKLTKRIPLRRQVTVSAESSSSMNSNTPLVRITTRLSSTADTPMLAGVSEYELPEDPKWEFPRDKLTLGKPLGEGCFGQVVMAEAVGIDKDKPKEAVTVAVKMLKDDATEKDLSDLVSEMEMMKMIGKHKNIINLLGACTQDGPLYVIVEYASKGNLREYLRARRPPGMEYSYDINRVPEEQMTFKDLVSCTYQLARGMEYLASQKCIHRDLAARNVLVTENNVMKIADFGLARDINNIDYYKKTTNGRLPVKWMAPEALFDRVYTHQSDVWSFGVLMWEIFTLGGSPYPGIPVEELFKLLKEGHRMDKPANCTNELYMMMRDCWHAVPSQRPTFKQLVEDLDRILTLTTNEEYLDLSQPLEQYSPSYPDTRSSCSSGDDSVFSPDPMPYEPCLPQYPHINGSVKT
FGFR1, sequence (P11362 22-822): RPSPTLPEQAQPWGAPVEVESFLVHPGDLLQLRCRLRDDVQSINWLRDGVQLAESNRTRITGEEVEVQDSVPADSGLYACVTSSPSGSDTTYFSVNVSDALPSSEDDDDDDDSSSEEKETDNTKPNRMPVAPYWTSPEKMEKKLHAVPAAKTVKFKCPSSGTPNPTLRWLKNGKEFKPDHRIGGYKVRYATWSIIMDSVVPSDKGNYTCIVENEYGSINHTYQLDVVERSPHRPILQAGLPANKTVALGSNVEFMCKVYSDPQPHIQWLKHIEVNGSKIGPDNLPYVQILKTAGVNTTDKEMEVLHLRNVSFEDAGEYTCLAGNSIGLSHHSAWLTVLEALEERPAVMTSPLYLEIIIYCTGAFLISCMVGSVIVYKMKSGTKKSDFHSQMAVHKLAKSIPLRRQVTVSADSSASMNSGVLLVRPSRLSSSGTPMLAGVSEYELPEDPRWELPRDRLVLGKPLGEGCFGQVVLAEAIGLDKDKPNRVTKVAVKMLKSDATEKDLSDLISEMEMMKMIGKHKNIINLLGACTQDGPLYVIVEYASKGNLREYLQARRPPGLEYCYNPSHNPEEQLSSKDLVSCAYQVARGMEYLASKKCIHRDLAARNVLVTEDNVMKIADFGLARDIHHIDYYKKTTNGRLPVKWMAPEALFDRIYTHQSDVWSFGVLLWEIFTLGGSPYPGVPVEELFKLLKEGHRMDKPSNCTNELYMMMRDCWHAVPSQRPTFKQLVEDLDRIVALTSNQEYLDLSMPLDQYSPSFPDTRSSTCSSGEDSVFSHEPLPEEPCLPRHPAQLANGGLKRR
FGFR3, sequence (P22607 23-806): as the sequence (P22607 23-806 V555M) above, with M533V counted along it
FGFR4, sequence (P22455 22-802): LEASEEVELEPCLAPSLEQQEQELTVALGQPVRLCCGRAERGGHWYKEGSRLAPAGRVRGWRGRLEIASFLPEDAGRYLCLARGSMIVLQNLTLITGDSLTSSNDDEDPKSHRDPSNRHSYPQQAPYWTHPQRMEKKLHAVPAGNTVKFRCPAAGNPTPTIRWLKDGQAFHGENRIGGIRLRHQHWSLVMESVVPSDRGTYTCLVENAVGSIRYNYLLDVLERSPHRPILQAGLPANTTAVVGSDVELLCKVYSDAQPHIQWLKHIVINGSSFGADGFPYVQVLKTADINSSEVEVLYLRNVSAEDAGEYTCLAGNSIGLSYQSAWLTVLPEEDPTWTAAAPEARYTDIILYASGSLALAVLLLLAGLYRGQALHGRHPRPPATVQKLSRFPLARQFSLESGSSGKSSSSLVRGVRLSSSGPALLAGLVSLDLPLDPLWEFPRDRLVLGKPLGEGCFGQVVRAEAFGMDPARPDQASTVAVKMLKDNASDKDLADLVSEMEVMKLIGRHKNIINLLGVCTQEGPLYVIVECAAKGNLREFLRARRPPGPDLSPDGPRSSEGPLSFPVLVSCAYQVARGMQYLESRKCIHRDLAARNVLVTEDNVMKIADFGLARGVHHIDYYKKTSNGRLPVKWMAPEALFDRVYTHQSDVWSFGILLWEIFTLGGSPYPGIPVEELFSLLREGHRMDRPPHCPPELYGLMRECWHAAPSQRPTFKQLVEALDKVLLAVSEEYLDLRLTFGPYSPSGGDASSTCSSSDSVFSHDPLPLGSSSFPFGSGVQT

Usually Kd stands for the free concentration of one partner at which half of the binding sites on the other are occupied at equilibrium, for simple one-to-one binding. A high value points to a looser complex. Turning to `Cc1ncc(Cl)c([C@@H](C)Oc2ccc3[nH]nc(-c4ccc(N5CCN6C(=O)CCC6C5)nc4)c3c2)c1Cl` (stereo partly drawn) [Example 225, 2-[5-[5-[(1R)-1-(3,5-dichloro-2-methyl-4-pyridyl)ethoxy]-1H-indazol-3-yl]-2-pyridyl]-1,3,4,7,8,8a-hexahydropyrrolo[1,2-a]pyrazin-6-one], the dissociation constant (Kd) at FGFR4 lay within 1 to 20 nM; at FGFR2, 1 to 20 nM; at FGFR3 (V555M), 1 to 20 nM; on FGFR3, 1 to 20 nM; on FGFR1, 20 to 100 nM.
As for `Cc1ncc(Cl)c([C@@H](C)Oc2ccc3[nH]nc(-c4ccc(N5CC6(CCCO6)C5)nc4)c3c2)c1Cl` [Example 226, 2-[5-[5-[(1R)-1-(3,5-dichloro-2-methyl-4-pyridyl)ethoxy]-1H-indazol-3-yl]-2-pyridyl]-5-oxa-2-azaspiro[3.4]octane], the Kd at FGFR4 fell in the range of 20 to 100 nM; at FGFR2, 20 to 100 nM; on FGFR3 (V555M), 1 to 20 nM; on FGFR3 it was 1 to 20 nM; on FGFR1 it was 20 to 100 nM.
Regarding `Cc1ncc(Cl)c([C@@H](C)Oc2ccc3[nH]nc(-c4ccc(N5CC6(CC(O)C6)C5)nc4)c3c2)c1Cl` [Example 227, 2-[5-[5-[(1R)-1-(3,5-dichloro-2-methyl-4-pyridyl)ethoxy]-1H-indazol-3-yl]-2-pyridyl]-2-azaspiro[3.3]heptan-6-ol], the Kd at FGFR4 was in the range of 1 to 20 nM; at FGFR2, 1 to 20 nM; at FGFR3 (V555M) it was 1 to 20 nM; at FGFR3 it was 1 to 20 nM; at FGFR1, 20 to 100 nM.
With `COc1cc2[nH]nc(-c3ccc(N4CCN5C(=O)NCC5C4)nc3)c2cc1O[C@H](C)c1c(C)cnnc1C` (stereo partly drawn) [Example 228, 7-(5-(5-((R)-1-(3,5-dimethylpyridazin-4-yl)ethoxy)-6-methoxy-1H-indazol-3-yl)pyridin-2-yl)hexahydroimidazo[1,5-a]pyrazin-3(2H)-one], the dissociation constant (Kd) on FGFR4, on FGFR2, at FGFR3 (V555M), on FGFR3 and on FGFR1 was 1 to 20 nM each time.
For the molecule `C[C@@H](Oc1ccc2[nH]nc(-c3ccc(N4CC5(COC5)C4)nc3)c2c1)c1c(Cl)cnnc1Cl` [Example 229, (R)-6-(5-(5-(1-(3,5-dichloropyridazin-4-yl)ethoxy)-1H-indazol-3-yl)pyridin-2-yl)-2-oxa-6-azaspiro[3.3]heptane], the Kd on FGFR4 is above 300 nM; on FGFR2, 100 to 300 nM; at FGFR3 (V555M) it was 20 to 100 nM; on FGFR3 it was 20 to 100 nM; at FGFR1 it was above 300 nM.
Take `C[C@@H](Oc1ccc2[nH]nc(-c3ccc(N4CC5(CN(CC(F)F)C5)C4)nc3)c2c1)c1c(Cl)cncc1Cl` [Example 230, (R)-5-(1-(3,5-dichloropyridin-4-yl)ethoxy)-3-(6-(6-(2,2-difluoroethyl)-2,6-diazaspiro[3.3]heptan-2-yl)pyridin-3-yl)-1H-indazole]: the Kd on FGFR4, at FGFR2, on FGFR3 (V555M), on FGFR3 and at FGFR1 was 1 to 20 nM in each case.
`Cc1cc(-c2n[nH]c3ccc(O[C@H](C)c4c(C)cnnc4C)cc23)cnc1N1CCN2C(=O)NCC2C1` (stereo partly drawn) [Example 231, 7-(5-(5-((R)-1-(3,5-dimethylpyridazin-4-yl)ethoxy)-1H-indazol-3-yl)-3-methylpyridin-2-yl)hexahydroimidazo[1,5-a]pyrazin-3(2H)-one]: the Kd on FGFR4 lay in the range of 1 to 20 nM; on FGFR2, 1 to 20 nM; on FGFR3 (V555M), 1 to 20 nM; on FGFR3, 1 to 20 nM; at FGFR1, 20 to 100 nM.
For `Cc1ncc(Cl)c([C@@H](C)Oc2ccc3[nH]nc(-c4ccc(N5CCC[C@@H]5CO)nc4)c3c2)c1Cl` [Example 232, [(2R)-1-[5-[5-[(1R)-1-(3,5-dichloro-2-methyl-4-pyridyl)ethoxy]-1H-indazol-3-yl]-2-pyridyl]pyrrolidin-2-yl]methanol], the Kd was 1 to 20 nM at FGFR4; 20 to 100 nM at FGFR2; 1 to 20 nM at FGFR3 (V555M); 1 to 20 nM at FGFR3; 20 to 100 nM on FGFR1.
For the molecule `C[C@@H](Oc1ccc2[nH]nc(-c3ccc(N4CC5(C4)CN(S(C)(=O)=O)C5)nc3)c2c1)c1c(Cl)cnnc1Cl` [Example 233, (R)-5-(1-(3,5-dichloropyridazin-4-yl)ethoxy)-3-(6-(6-(methylsulfonyl)-2,6-diazaspiro[3.3]heptan-2-yl)pyridin-3-yl)-1H-indazole], the Kd was above 300 nM at FGFR4; 100 to 300 nM at FGFR2; 20 to 100 nM at FGFR3 (V555M); 20 to 100 nM on FGFR3; above 300 nM at FGFR1.
Regarding `Cc1cc(-c2n[nH]c3ccc(O[C@H](C)c4c(Cl)cnc(C)c4Cl)cc23)cnc1N1CC(CO)(CO)C1` [Example 234, [1-[5-[5-[(1R)-1-(3,5-dichloro-2-methyl-4-pyridyl)ethoxy]-1H-indazol-3-yl]-3-methyl-2-pyridyl]-3-(hydroxymethyl)azetidin-3-yl]methanol], the Kd lay within 1 to 20 nM on FGFR4; 100 to 300 nM at FGFR2; 1 to 20 nM on FGFR3 (V555M); 1 to 20 nM on FGFR3; 100 to 300 nM at FGFR1.
As for `Cc1cc(-c2n[nH]c3ccc(O[C@H](C)c4c(Cl)cnc(C)c4Cl)cc23)cnc1N1CC2(C1)CN(S(C)(=O)=O)C2` [Example 235, 5-[(1R)-1-(3,5-dichloro-2-methyl-4-pyridyl)ethoxy]-3-[5-methyl-6-(2-methylsulfonyl-2,6-diazaspiro[3.3]heptan-6-yl)-3-pyridyl]-1H-indazole], the dissociation constant (Kd) lay in the range of 1 to 20 nM on FGFR4; 100 to 300 nM at FGFR2; 1 to 20 nM at FGFR3 (V555M); 1 to 20 nM at FGFR3; 100 to 300 nM at FGFR1.
Regarding `C[C@@H](Oc1ccc2[nH]nc(-c3ccc(N4CCC[C@@H]4CO)nc3)c2c1)c1c(Cl)cncc1Cl` [Example 236, ((R)-1-(5-(5-((R)-1-(3,5-dichloropyridin-4-yl)ethoxy)-1H-indazol-3-yl)pyridin-2-yl)pyrrolidin-2-yl)methanol], the dissociation constant (Kd) on FGFR4 was 1 to 20 nM; on FGFR2 it was 1 to 20 nM; at FGFR3 (V555M) it was 1 to 20 nM; on FGFR3 it was 1 to 20 nM; on FGFR1 it was 20 to 100 nM.
Consider `C[C@@H](Oc1ccc2[nH]nc(-c3ccc(N4CCC[C@H]4CO)nc3)c2c1)c1c(Cl)cncc1Cl` [Example 237, ((S)-1-(5-(5-((R)-1-(3,5-dichloropyridin-4-yl)ethoxy)-1H-indazol-3-yl)pyridin-2-yl)pyrrolidin-2-yl)methanol], for which the Kd on FGFR4, on FGFR2, on FGFR3 (V555M), at FGFR3 and at FGFR1 was 1 to 20 nM in each case.
Take `COC1CC2(C1)CN(c1ccc(-c3n[nH]c4ccc(O[C@H](C)c5c(Cl)cnc(C)c5Cl)cc34)cn1)C2` [Example 238, 5-[(1R)-1-(3,5-dichloro-2-methyl-4-pyridyl)ethoxy]-3-[6-(6-methoxy-2-azaspiro[3.3]heptan-2-yl)-3-pyridyl]-1H-indazole]: the Kd on FGFR4 was in the range of 1 to 20 nM; at FGFR2 it was 20 to 100 nM; on FGFR3 (V555M), 1 to 20 nM; on FGFR3, 1 to 20 nM; at FGFR1 it was 20 to 100 nM.
For the molecule `COc1cc2[nH]nc(-c3cnc(N4CC5(C4)CN(S(C)(=O)=O)C5)nc3)c2cc1O[C@H](C)c1c(Cl)cncc1Cl` [Example 239, 5-[(1R)-1-(3,5-dichloro-4-pyridyl)ethoxy]-6-methoxy-3-[2-(2-methylsulfonyl-2,6-diazaspiro[3.3]heptan-6-yl)pyrimidin-5-yl]-1H-indazole], the Kd at FGFR4, on FGFR2, on FGFR3 (V555M), on FGFR3 and on FGFR1 was 1 to 20 nM throughout.
Consider `COc1cc2[nH]nc(-c3cnc(N4CC5(C4)CN(S(C)(=O)=O)C5)nc3)c2cc1O[C@H](C)c1c(Cl)cnc(C)c1Cl` [Example 240, 5-[(1R)-1-(3,5-dichloro-2-methyl-4-pyridyl)ethoxy]-6-methoxy-3-[2-(2-methylsulfonyl-2,6-diazaspiro[3.3]heptan-6-yl)pyrimidin-5-yl]-1H-indazole], for which the Kd on FGFR4, on FGFR2, on FGFR3 (V555M), on FGFR3 and on FGFR1 was 1 to 20 nM each time.
`Cc1ncc(Cl)c([C@@H](C)Oc2ccc3[nH]nc(-c4ccc(N5CCC[C@H]5CO)nc4)c3c2)c1Cl` [Example 241, [(2S)-1-[5-[5-[(1R)-1-(3,5-dichloro-2-methyl-4-pyridyl)ethoxy]-1H-indazol-3-yl]-2-pyridyl]pyrrolidin-2-yl]methanol]: the Kd was 1 to 20 nM on FGFR4; 20 to 100 nM on FGFR2; 1 to 20 nM on FGFR3 (V555M); 1 to 20 nM on FGFR3; 1 to 20 nM on FGFR1.
As for `COc1cc2[nH]nc(-c3cnc(N4CC5(C4)CN(S(C)(=O)=O)C5)c(F)c3)c2cc1O[C@H](C)c1c(Cl)cncc1Cl` [Example 242, 5-[(1R)-1-(3,5-dichloro-4-pyridyl)ethoxy]-3-[5-fluoro-6-(2-methylsulfonyl-2,6-diazaspiro[3.3]heptan-6-yl)-3-pyridyl]-6-methoxy-1H-indazole], the Kd on FGFR4, on FGFR2, at FGFR3 (V555M), at FGFR3 and at FGFR1 was 1 to 20 nM throughout.
In the case of `COc1cc2[nH]nc(-c3cnc(N4CC5(C4)CN(S(C)(=O)=O)C5)c(F)c3)c2cc1O[C@H](C)c1c(Cl)cnc(C)c1Cl` [Example 243, 5-[(1R)-1-(3,5-dichloro-2-methyl-4-pyridyl)ethoxy]-3-[5-fluoro-6-(2-methylsulfonyl-2,6-diazaspiro[3.3]heptan-6-yl)-3-pyridyl]-6-methoxy-1H-indazole], the Kd at FGFR4, at FGFR2, at FGFR3 (V555M), on FGFR3 and on FGFR1 was 1 to 20 nM each time.
